The source of these data is patent publication US20250145606A1 (Arcus Biosciences, Inc., priority 2023, published 2025).

For orientation: IC50 means the point on the concentration scale where inhibition reaches its midpoint.

Structures are written as SMILES. Read-outs that look alike come from different tables or passages of the source. Where only a bound is given, the exact number is not on record here.

One assay has as its target CSF1R (Homo sapiens (Human), UniProt P07333). Description: Inhibition of CSF1R kinase activity (HTRF KinEASE-TK). The settings on record: biochemical, HTRF KinEASE-TK. In a few lines: (§1)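 Phosphorylation of biotinylated TK peptide read by HTRF (665/620 nm ratio) after 120 min at rt, following 1 h enzyme–compound preincubation. ATP (2× mix): 20 μM CSF1R, 16 μM c-Kit, 40 μM PDGFRβ, 1 μM PDGFRα; MgCl2 10 mM except c-Kit 5 mM. 22-point 1:2 titration; four-parameter IC50.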
In general terms: Time-resolved FRET reads energy transfer from a long-lived donor to a nearby acceptor.

Another assay has as its target PDGFRβ (Homo sapiens (Human), UniProt P09619). Description: Inhibition of PDGFRβ kinase activity (HTRF KinEASE-TK). Conditions: biochemical, HTRF KinEASE-TK. The gist of the method:
as §1

The target in another assay is c-Kit (Homo sapiens (Human), UniProt P10721). The assay can be described thus: Inhibition of c-Kit kinase activity (HTRF KinEASE-TK). Conditions: biochemical, HTRF KinEASE-TK. It counts as biochemical. In a few lines:
as §1

A further assay has as its target PDGFRα (Homo sapiens (Human), UniProt P16234). The assay can be described thus: Inhibition of PDGFRα kinase activity (HTRF KinEASE-TK). Conditions: biochemical, HTRF KinEASE-TK. The gist of the method:
as §1

In assay [1] the test system is Phospho-KIT (Y703) in M07e cells. Description: Phospho-KIT (Y703) cellular assay in M07e cells. Format: cell-based. Conditions: M-07e. The gist of the method:
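Serum-starved M07e cells preincubated 50 min at 37° C with 11-point half-log compound titration, then stimulated 10 min with SCF at 90.9 ng/mL final. Fixed, permeabilized cells stained for phospho-KIT Y703 and read by flow cytometry (live-gated geometric mean); IC50 by 4-parameter fit normalized to DMSO and positive control.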

Setting [2] is: Phospho-KIT (Y703), M07e cells, read-out: M07e Cell IC50.
Setting [3] is: M07e cells, read-out: Phospho-KIT (Y703) cellular IC50.

c-Kit, sequence (P10721 26-976): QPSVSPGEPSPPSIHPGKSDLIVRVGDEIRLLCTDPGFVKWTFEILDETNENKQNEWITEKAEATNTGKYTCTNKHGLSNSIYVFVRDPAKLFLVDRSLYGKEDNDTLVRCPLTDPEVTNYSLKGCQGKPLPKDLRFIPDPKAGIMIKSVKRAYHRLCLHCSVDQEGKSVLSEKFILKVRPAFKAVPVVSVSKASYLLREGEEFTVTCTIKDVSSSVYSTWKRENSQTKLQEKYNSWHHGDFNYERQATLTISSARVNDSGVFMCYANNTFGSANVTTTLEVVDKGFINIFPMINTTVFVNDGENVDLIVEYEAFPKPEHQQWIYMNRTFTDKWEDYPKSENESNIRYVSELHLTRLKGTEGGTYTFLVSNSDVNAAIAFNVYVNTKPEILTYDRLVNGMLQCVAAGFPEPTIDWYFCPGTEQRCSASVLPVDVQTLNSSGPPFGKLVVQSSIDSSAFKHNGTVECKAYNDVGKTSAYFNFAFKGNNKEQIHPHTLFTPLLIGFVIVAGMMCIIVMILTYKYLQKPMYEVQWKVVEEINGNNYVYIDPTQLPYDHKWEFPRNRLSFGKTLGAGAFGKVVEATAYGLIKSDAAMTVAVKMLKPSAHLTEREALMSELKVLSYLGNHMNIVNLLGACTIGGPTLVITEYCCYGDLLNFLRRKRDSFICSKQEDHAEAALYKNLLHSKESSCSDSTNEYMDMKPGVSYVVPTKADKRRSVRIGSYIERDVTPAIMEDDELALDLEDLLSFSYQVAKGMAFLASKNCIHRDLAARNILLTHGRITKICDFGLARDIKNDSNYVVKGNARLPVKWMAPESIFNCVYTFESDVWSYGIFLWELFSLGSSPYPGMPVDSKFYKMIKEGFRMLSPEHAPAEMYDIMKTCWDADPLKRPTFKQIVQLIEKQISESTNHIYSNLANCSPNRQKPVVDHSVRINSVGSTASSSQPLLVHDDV
PDGFRβ, sequence (P09619 33-1106): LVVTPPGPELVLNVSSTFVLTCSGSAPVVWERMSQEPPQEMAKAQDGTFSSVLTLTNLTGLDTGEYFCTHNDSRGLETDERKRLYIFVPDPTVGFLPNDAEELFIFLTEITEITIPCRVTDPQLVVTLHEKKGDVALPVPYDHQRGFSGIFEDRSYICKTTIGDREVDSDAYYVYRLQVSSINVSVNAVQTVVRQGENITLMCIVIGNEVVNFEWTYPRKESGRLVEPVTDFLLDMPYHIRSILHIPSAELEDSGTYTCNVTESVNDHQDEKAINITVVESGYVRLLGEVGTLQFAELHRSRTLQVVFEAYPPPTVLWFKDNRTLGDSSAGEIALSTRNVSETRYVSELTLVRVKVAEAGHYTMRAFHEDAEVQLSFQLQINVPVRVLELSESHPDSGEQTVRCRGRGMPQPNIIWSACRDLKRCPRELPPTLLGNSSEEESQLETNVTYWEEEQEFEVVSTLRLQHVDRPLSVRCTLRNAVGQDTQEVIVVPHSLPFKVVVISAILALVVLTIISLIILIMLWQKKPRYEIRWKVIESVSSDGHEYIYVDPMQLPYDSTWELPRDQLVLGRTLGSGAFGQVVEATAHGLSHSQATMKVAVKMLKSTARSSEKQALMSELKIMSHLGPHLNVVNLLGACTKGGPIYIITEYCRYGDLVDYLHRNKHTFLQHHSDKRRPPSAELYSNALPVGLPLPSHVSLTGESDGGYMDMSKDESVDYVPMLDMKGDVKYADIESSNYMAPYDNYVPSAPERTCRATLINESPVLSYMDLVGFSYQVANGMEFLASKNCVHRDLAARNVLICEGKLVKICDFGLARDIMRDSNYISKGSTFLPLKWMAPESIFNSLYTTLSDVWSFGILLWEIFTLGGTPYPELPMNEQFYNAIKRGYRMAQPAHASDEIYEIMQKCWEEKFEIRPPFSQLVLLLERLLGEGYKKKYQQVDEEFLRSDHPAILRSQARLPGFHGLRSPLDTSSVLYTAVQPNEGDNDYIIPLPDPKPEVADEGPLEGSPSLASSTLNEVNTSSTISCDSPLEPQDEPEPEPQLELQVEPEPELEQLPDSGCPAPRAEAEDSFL
PDGFRα, sequence (P16234 24-1089): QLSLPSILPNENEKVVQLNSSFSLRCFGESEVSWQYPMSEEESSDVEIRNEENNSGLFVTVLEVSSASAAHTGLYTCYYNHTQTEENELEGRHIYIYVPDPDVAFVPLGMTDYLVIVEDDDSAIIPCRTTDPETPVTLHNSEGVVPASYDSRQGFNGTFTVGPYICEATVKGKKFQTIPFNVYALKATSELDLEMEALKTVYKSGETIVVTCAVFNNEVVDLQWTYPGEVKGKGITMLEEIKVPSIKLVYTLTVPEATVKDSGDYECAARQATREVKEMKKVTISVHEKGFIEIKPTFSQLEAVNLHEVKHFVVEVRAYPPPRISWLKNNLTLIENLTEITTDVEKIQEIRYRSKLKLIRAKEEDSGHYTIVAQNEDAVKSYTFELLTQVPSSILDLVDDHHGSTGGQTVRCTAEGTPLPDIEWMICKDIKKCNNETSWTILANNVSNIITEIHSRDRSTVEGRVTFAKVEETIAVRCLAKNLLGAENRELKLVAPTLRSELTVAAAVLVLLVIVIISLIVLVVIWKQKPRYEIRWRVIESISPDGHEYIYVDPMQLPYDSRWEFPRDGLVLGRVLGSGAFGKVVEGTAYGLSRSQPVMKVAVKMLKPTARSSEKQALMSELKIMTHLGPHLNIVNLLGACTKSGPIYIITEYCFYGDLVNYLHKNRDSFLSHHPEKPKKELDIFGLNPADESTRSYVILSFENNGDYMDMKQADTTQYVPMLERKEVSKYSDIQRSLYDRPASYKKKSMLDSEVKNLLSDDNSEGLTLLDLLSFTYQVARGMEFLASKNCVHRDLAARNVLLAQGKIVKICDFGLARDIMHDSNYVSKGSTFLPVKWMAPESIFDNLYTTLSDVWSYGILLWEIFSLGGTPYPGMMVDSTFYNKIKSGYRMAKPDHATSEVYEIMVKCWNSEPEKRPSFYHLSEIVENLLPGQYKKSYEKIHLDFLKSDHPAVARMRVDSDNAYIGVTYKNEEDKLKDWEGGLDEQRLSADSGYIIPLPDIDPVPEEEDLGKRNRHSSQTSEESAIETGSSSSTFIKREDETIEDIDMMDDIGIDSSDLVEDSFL
CSF1R, sequence (P07333 20-972): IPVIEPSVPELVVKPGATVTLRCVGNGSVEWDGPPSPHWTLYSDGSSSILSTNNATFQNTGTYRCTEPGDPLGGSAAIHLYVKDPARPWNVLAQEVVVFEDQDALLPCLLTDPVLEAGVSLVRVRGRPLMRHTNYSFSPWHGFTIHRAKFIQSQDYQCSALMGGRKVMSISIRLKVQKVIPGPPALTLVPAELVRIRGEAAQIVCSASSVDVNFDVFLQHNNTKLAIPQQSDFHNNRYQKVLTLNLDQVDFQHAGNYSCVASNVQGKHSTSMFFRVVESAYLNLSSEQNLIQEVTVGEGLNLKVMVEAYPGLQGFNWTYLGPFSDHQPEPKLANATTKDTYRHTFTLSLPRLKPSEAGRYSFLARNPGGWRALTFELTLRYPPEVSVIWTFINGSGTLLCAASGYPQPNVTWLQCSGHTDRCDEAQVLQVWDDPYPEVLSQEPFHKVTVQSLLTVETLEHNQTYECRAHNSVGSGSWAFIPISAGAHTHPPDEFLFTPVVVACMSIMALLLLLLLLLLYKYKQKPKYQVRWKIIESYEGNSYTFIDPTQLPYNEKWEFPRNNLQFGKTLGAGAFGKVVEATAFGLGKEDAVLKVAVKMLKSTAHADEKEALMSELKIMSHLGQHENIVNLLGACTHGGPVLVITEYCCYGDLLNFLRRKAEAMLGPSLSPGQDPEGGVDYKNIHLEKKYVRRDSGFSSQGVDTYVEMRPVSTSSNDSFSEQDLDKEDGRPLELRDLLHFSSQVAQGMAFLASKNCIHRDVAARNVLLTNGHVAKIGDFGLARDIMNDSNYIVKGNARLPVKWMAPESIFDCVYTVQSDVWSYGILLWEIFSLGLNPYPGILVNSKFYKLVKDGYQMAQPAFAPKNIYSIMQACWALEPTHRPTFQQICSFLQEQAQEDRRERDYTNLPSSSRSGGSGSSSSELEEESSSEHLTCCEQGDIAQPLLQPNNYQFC

As for `Cc1ncc(C(=O)Nc2cc(C(=O)Nc3cnc(N4CCC(F)(F)C4)cn3)c(F)cc2C)s1` [Example 92, N-[5-[[5-(3,3-difluoropyrrolidin-1-yl)pyrazin-2-yl]carbamoyl]-4-fluoro-2-methylphenyl]-2-methyl-1,3-thiazole-5-carboxamide], the IC50 is more than 1 µM at CSF1R; more than 1 µM on PDGFRβ; less than 0.1 µM against c-Kit; more than 1 µM against PDGFRα; less than 0.1 µM in assay [1] (setting [2]).
On to `Cc1ncc(C(=O)Nc2cc(C(=O)Nc3cnc(N4CC[C@H](F)C4)cn3)c(F)cc2C)s1` [Example 93, N-[4-fluoro-5-[[5-[(3S)-3-fluoropyrrolidin-1-yl]pyrazin-2-yl]carbamoyl]-2-methylphenyl]-2-methyl-1,3-thiazole-5-carboxamide], for which the IC50 against CSF1R is more than 1 µM; on PDGFRβ, more than 1 µM; against c-Kit, less than 0.1 µM; on PDGFRα, more than 1 µM; in assay [1] (setting [2]), less than 0.1 µM.
For `Cc1ncc(C(=O)Nc2cc(C(=O)Nc3cnc(N4CC[C@@H](F)C4)cn3)c(F)cc2C)s1` [Example 94, N-[4-fluoro-5-[[5-[(3R)-3-fluoropyrrolidin-1-yl]pyrazin-2-yl]carbamoyl]-2-methylphenyl]-2-methyl-1,3-thiazole-5-carboxamide], the half-maximal inhibitory concentration (IC50) against CSF1R is more than 1 µM; against PDGFRβ, more than 1 µM; against c-Kit, less than 0.1 µM; on PDGFRα, more than 1 µM; in assay [1] (setting [2]), less than 0.1 µM.
For the compound `Cc1ncc(C(=O)Nc2cc(C(=O)Nc3cnc(N4CCC[C@H]4C(F)(F)F)cn3)c(F)cc2C)s1` [Example 95, N-[4-fluoro-2-methyl-5-[[5-[(2S)-2-(trifluoromethyl)pyrrolidin-1-yl]pyrazin-2-yl]carbamoyl]phenyl]-2-methyl-1,3-thiazole-5-carboxamide], the IC50 on CSF1R was more than 1 µM; on PDGFRβ it was more than 1 µM; at c-Kit it was less than 0.1 µM; on PDGFRα, more than 1 µM; in assay [1] (setting [2]), less than 0.1 µM.
Turning to `COC[C@@H]1CCCN1c1cnc(NC(=O)c2cc(NC(=O)c3cnc(C)s3)c(C)cc2F)cn1` [Example 97, N-[4-fluoro-5-[[5-[(2S)-2-(methoxymethyl)pyrrolidin-1-yl]pyrazin-2-yl]carbamoyl]-2-methylphenyl]-2-methyl-1,3-thiazole-5-carboxamide], the IC50 at CSF1R was more than 1 µM; on PDGFRβ, more than 1 µM; on c-Kit it was less than 0.1 µM; at PDGFRα it was more than 1 µM; in assay [1] (setting [2]), 0.1 to 1 µM.
`Cc1ncc(C(=O)Nc2cc(C(=O)Nc3ccc(CC(F)(F)F)cn3)c(Cl)cc2C)s1` [Example 99, N-[4-chloro-2-methyl-5-[[5-(2,2,2-trifluoroethyl)pyridin-2-yl]carbamoyl]phenyl]-2-methyl-1,3-thiazole-5-carboxamide]: the IC50 on CSF1R is more than 1 µM; on PDGFRβ it was more than 1 µM; against c-Kit, 0.1 to 1 µM; on PDGFRα it was more than 1 µM; in assay [1] (read-out: M07e Cell IC50), 0.1 to 1 µM.
For the compound `Cc1ncc(C(=O)Nc2cc(C(=O)Nc3ccnc(CC4CC4)n3)c(F)cc2C)s1` [Example 100, N-[5-[[2-(cyclopropylmethyl)pyrimidin-4-yl]carbamoyl]-4-fluoro-2-methylphenyl]-2-methyl-1,3-thiazole-5-carboxamide], the IC50 was more than 1 µM at CSF1R; more than 1 µM at PDGFRβ; 0.1 to 1 µM on c-Kit; more than 1 µM at PDGFRα; 0.1 to 1 µM in assay [1] (setting [2]).
Consider `Cc1ncc(C(=O)Nc2cc(C(=O)N[C@@H]3C[C@@H]3c3ccccc3Cl)c(F)cc2C)s1` [Example 101, N-[5-[[(1R,2R)-2-(2-chlorophenyl)cyclopropyl]carbamoyl]-4-fluoro-2-methylphenyl]-2-methyl-1,3-thiazole-5-carboxamide], for which the IC50 is 0.1 to 1 µM at CSF1R; 0.1 to 1 µM on PDGFRβ; less than 0.1 µM against c-Kit; less than 0.1 µM against PDGFRα; less than 0.1 µM in assay [1] (setting [2]).
As to `Cc1cc(F)c(C(=O)Nc2ccc(O[C@@H]3CCOC3)cn2)cc1NC(=O)c1cnc(N)s1` [Example 198, 2-Amino-N-[4-fluoro-2-methyl-5-[[5-[(3R)-oxolan-3-yl]oxypyridin-2-yl]carbamoyl]phenyl]-1,3-thiazole-5-carboxamide], the IC50 against CSF1R was more than 1 µM; on PDGFRβ, 0.1 to 1 µM; on c-Kit, less than 0.1 µM; at PDGFRα, more than 1 µM; in assay [1] (setting [2]) it was less than 0.1 µM.
With `Nc1ncc(C(=O)Nc2cc(C(=O)Nc3ccc(C4CC4)nn3)c(F)cc2Cl)s1` [Example 201, 2-Amino-N-[2-chloro-5-[(6-cyclopropylpyridazin-3-yl)carbamoyl]-4-fluorophenyl]-1,3-thiazole-5-carboxamide], the IC50 is 0.1 to 1 µM against CSF1R; 0.1 to 1 µM against PDGFRβ; less than 0.1 µM against c-Kit; more than 1 µM at PDGFRα; less than 0.1 µM in assay [1] (setting [2]).
For `CC(C)Oc1ccc(NC(=O)c2cc(NC(=O)c3cnc(N)s3)c(Cl)cc2F)nc1` [Example 207, 2-Amino-N-[2-chloro-4-fluoro-5-[(5-propan-2-yloxypyridin-2-yl)carbamoyl]phenyl]-1,3-thiazole-5-carboxamide], the IC50 was 0.1 to 1 µM against CSF1R; more than 1 µM at PDGFRβ; less than 0.1 µM at c-Kit; more than 1 µM against PDGFRα; less than 0.1 µM in assay [1] (setting [2]).
As to `CCc1ccc(NC(=O)c2cc(NC(=O)c3cnc(N)s3)c(F)cc2F)nc1` [Example 214, 2-Amino-N-[5-[(5-ethylpyridin-2-yl)carbamoyl]-2,4-difluorophenyl]-1,3-thiazole-5-carboxamide], the IC50 was more than 1 µM against CSF1R; more than 1 µM against PDGFRβ; less than 0.1 µM at c-Kit; more than 1 µM on PDGFRα; less than 0.1 µM in assay [1] (setting [2]).
Regarding `Cc1cc(F)c(C(=O)Nc2ccc(F)cc2)cc1NC(=O)c1cnc(N)s1` [Example 233, 2-Amino-N-[4-fluoro-5-[(4-fluorophenyl)carbamoyl]-2-methylphenyl]-1,3-thiazole-5-carboxamide], the IC50 at CSF1R was more than 1 µM; against PDGFRβ, more than 1 µM; at c-Kit, less than 0.1 µM; at PDGFRα it was more than 1 µM; in assay [1] (setting [2]) it was less than 0.1 µM.
Turning to `Cc1cc(F)c(C(=O)Nc2ccc(COC(F)F)cn2)cc1NC(=O)c1cnc(N)s1` [Example 254, 2-Amino-N-[5-[[5-(difluoromethoxymethyl)pyridin-2-yl]carbamoyl]-4-fluoro-2-methylphenyl]-1,3-thiazole-5-carboxamide], the IC50 is 0.1 to 1 µM on CSF1R; less than 0.1 µM against PDGFRβ; less than 0.1 µM against c-Kit; more than 1 µM against PDGFRα; less than 0.1 µM in assay [1] (setting [2]).
As for `Cc1ncc(C(=O)Nc2cc(C(=O)NCc3ccc(F)cc3)c(F)cc2C)s1` [Example 262, N-[4-fluoro-5-[(4-fluorophenyl)methylcarbamoyl]-2-methylphenyl]-2-methyl-1,3-thiazole-5-carboxamide], the IC50 at CSF1R was more than 1 µM; against PDGFRβ it was more than 1 µM; against c-Kit, less than 0.1 µM; on PDGFRα, more than 1 µM; in assay [1] (setting [3]) it was less than 0.1 µM.
Take `Cc1ncc(C(=O)Nc2cc(C(=O)NCc3ccc(F)cc3F)c(F)cc2C)s1` [Example 263, N-[5-[(2,4-difluorophenyl)methylcarbamoyl]-4-fluoro-2-methylphenyl]-2-methyl-1,3-thiazole-5-carboxamide]: the IC50 was more than 1 µM at CSF1R; more than 1 µM at PDGFRβ; less than 0.1 µM against c-Kit; more than 1 µM on PDGFRα; less than 0.1 µM in assay [1] (setting [3]).
Regarding `Cc1ncc(C(=O)Nc2cc(C(=O)NCc3cc(F)cc(F)c3)c(F)cc2C)s1` [Example 264, N-[5-[(3,5-difluorophenyl)methylcarbamoyl]-4-fluoro-2-methylphenyl]-2-methyl-1,3-thiazole-5-carboxamide], the IC50 at CSF1R is more than 1 µM; against PDGFRβ, more than 1 µM; on c-Kit, less than 0.1 µM; at PDGFRα, more than 1 µM; in assay [1] (setting [3]), less than 0.1 µM.
For `Cc1ncc(C(=O)Nc2cc(C(=O)NCc3cccc(F)c3F)c(F)cc2C)s1` [Example 265, N-[5-[(2,3-difluorophenyl)methylcarbamoyl]-4-fluoro-2-methylphenyl]-2-methyl-1,3-thiazole-5-carboxamide], the IC50 against CSF1R is more than 1 µM; against PDGFRβ it was more than 1 µM; against c-Kit, less than 0.1 µM; at PDGFRα, more than 1 µM; in assay [1] (setting [3]) it was less than 0.1 µM.
In the case of `Cc1ncc(C(=O)Nc2cc(C(=O)NCc3ccc(F)c(F)c3)c(F)cc2C)s1` [Example 266, N-[5-[(3,4-difluorophenyl)methylcarbamoyl]-4-fluoro-2-methylphenyl]-2-methyl-1,3-thiazole-5-carboxamide], the IC50 on CSF1R was more than 1 µM; against PDGFRβ it was more than 1 µM; on c-Kit it was less than 0.1 µM; against PDGFRα, more than 1 µM; in assay [1] (setting [3]), less than 0.1 µM.
